Earlier results, collected in patent US6645390B1, “Composition and method for treating hydrocarbon fires” (Hazard Control Technologies, Inc., priority 1994, dated 2003).

solubility in water: slightly soluble
pH (at the concentration of its slight solubility in water): about 3.5
Substance: isononanoic acid
